Assay results as given in US10201546B2, “Quinolinyl modulators of RORγt” (Janssen Pharmaceutica NV, priority 2013, dated 2019).
Where two headings read alike, the source gives them in different places.

Key:
[1] = target: human RORγt ligand binding domain (RORγt LBD) (Homo sapiens (Human), UniProt P51449); experiment: RORγt ThermoFluor assay (thermal shift, binding affinity Kd)
[2] = target: human RORγt LBD fused to the DNA binding domain of the GAL4 protein (Homo sapiens (Human), UniProt P51449); experiment: RORγt (LBD) reporter assay in HEK293T cells; assay type: cell-based; set-up: RORγt (LBD) Reporter Assay, % inhibition: dose or concentration left out as unconfirmed; settings: for inhibition at 6 µM: HEK-293T, read-out: RORγt (LBD) Reporter Assay, % inhibition @ 6 μM, @ 6 μM
Text: A reporter assay was used to test functional activity of RORγt modulatory compounds on transcriptional activation driven by the RORγt LBD. Cells used in the assay were co-transfected with two constructs. The first construct, pBIND-RORγt LBD, contained the wild type human RORγt LBD fused to the DNA binding domain of the GAL4 protein. The second construct, pGL4.31 (Promega Cat no. C935A), contained multiple GAL4 responsive DNA elements upstream of firefly luciferase.
The pBIND vector contains the GAL4 DNA Binding Domain (GAL4 DBD) and the renilla luciferase gene under control of the SV40 promoter. Renilla luciferase expression serves as a control for transfection efficiency and cell viability.
The reporter assay was performed by transiently transfecting HEK293T cells with 5 μg of pBIND-RORγt LBD or pBIND-RORγt LBD-AF2 and 5 μg pGL4.31 (Promega Cat no. C935A) using Fugene 6 (Invitrogen Cat no. E2691) at a 1:6 ratio of DNA:Fugene 6 in a T-75 flask in which cells were at least 80% confluent. Twenty four hours after bulk transfection, cells were plated into 96-well plates at 50,000 cells/well in phenol-red free DMEM containing 5% Lipid Reduced FCS and Pen/Strep. Six hours after plating, cells were treated with compounds for 24 hours. Media was removed and cells were lysed with 50 μL 1× Glo Lysis Buffer (Promega). Dual Glo Luciferase Reagent (50 μL/well) was then added and firefly luciferase luminescence was read on an Envision after a ten minute incubation. Finally, Stop and Glo reagent (50 L/well) was added and renilla luciferase luminescence was read on an Envision after a ten minute incubation. To calculate the effect of compounds on RORγt activity, the ratio of firefly to renilla luciferase was determined and plotted against compound concentration. Agonist compounds increase RORγt-driven luciferase expression, and antagonist or inverse agonist compounds decrease luciferase expression.

[3] = read-out: ThermoFluor Assay, Kd
[4] = read-out: ThermoFluor ® Assay, Kd

Sequence of human RORγt ligand binding domain (RORγt LBD) (P51449 other isoform, or with tags, fused parts or gaps): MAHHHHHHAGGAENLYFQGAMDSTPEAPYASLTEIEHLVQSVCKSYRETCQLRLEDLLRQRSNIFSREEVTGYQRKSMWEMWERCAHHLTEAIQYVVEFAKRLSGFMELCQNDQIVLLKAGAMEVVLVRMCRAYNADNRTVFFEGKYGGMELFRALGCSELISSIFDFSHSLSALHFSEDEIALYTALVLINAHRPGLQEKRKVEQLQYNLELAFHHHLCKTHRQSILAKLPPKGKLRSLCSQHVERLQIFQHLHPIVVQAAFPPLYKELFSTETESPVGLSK
Sequence of human RORγt LBD fused to the DNA binding domain of the GAL4 protein (P51449 258-518): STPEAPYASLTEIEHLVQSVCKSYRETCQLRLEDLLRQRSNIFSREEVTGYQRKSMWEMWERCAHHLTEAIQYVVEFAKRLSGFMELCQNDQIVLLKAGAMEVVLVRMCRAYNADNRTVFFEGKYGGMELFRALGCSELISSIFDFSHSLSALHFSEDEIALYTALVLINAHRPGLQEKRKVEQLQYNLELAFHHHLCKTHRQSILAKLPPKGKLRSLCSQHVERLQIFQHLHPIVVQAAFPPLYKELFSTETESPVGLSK

| Compound | Kd [1, 3] | IC50 [2] | inhibition at 6 µM [2] | Kd [1, 4] | further results |
| --- | --- | --- | --- | --- | --- |
| COc1nc2ccc(C(O)(c3cncn3C)C3CCN(S(C)(=O)=O)CC3)cc2c(Cl)c1CC1CCOCC1 (single isomer, unassigned) [Example 6b, (4-Chloro-2-methoxy-3-((tetrahydro-2H-pyran-4-yl)methyl)quinolin-6-yl)(1-methyl-1H-imidazol-5-yl)(1-(methylsulfonyl)piperidin-4-yl)methanol] | 240 nM | > 6000 nM | 17% | – | – |
| COc1nc2ccc(C(O)(c3cncn3C)C3CCN(S(C)(=O)=O)CC3)cc2c(Cl)c1CC1CCOCC1 (single isomer, unassigned) [Example 6c, (4-Chloro-2-methoxy-3-((tetrahydro-2H-pyran-4-yl)methyl)quinolin-6-yl)(1-methyl-1H-imidazol-5-yl)(1-(methylsulfonyl)piperidin-4-yl)methanol] | 130 nM | > 6000 nM | – | – | RORγt (LBD) Reporter Assay, % inhibition @ 6 μM [2]: 26% |
| COc1nc2ccc(C(O)(c3cnc(C)n3C)c3cnc(C)n3C)cc2c(Cl)c1OC1CCCN(C)C1 (single isomer, unassigned) [Example 51b, (4-Chloro-2-methoxy-3-{[1-methylpiperidin-3-yl]oxy}quinolin-6-yl)[bis(1,2-dimethyl-1H-imidazol-5-yl)]methanol] | 3000 nM | – | – | – | – |
| COc1nc2ccc(C(O)(c3cnc(C)n3C)c3cnc(C)n3C)cc2c(Cl)c1OC1CCCN(C)C1 (single isomer, unassigned) [Example 51c, (4-Chloro-2-methoxy-3-{[1-methylpiperidin-3-yl]oxy}quinolin-6-yl)[bis(1,2-dimethyl-1H-imidazol-5-yl)]methanol] | 5000 nM | > 6000 nM | -4% | – | – |
| COc1nc2ccc(C(O)(c3ccc(C)nc3C)c3cnnn3C)cc2c(Cl)c1OCCN1CCCC1 (single isomer, unassigned) [Example 67b, [4-Chloro-2-methoxy-3-(2-pyrrolidin-1-ylethoxy)quinolin-6-yl](2,6-dimethylpyridin-3-yl)(1-methyl-1H-1,2,3-triazol-5-yl)methanol] | 1000 nM | > 6000 nM | -37% | – | – |
| COc1nc2ccc(C(O)(c3ccc(C)nc3C)c3cnnn3C)cc2c(Cl)c1OCCS(C)(=O)=O (single isomer, unassigned) [Example 70b, {4-Chloro-2-methoxy-3-[2-(methylsulfonyl)ethoxy]quinolin-6-yl}(2,6-dimethylpyridin-3-yl)(1-methyl-1H-1,2,3-triazol-5-yl)methanol] | 2200 nM | > 6000 nM | 28% | – | – |
| COc1nc2ccc(C(O)(c3ccc(C)nc3C)c3cnnn3C)cc2c(Cl)c1OCCN(C)C (single isomer, unassigned) [Example 74b, {4-Chloro-3-[2-(dimethylamino)ethoxy]-2-methoxyquinolin-6-yl}(2,6-dimethylpyridin-3-yl)(1-methyl-1H-1,2,3-triazol-5-yl)methanol] | 4900 nM | > 6000 nM | -9% | – | – |
| COc1nc2ccc(C(O)(c3ccc(C(F)(F)F)nc3)c3cncn3C)cc2c(Cl)c1OCc1cccnc1 (single isomer, unassigned) [Example 76b, [4-Chloro-2-methoxy-3-(pyridin-3-ylmethoxy)quinolin-6-yl](1-methyl-1H-imidazol-5-yl)[6-(trifluoromethyl)pyridin-3-yl]methanol] | 1200 nM | > 6000 nM | – | – | RORγt (LBD) Reporter Assay, % inhibition @ 6 μM [2]: −17% |
| COc1nc2ccc(C(O)(c3ccc(C(F)(F)F)nc3)c3cncn3C)cc2c(Cl)c1OCc1cccnc1 (single isomer, unassigned) [Example 76c, [4-Chloro-2-methoxy-3-(pyridin-3-ylmethoxy)quinolin-6-yl](1-methyl-1H-imidazol-5-yl)[6-(trifluoromethyl)pyridin-3-yl]methanol] | 110 nM | > 6000 nM | – | – | RORγt (LBD) Reporter Assay, % inhibition @ 6 μM [2]: −35% |
| COc1nc2ccc(C(O)(c3ccc(C(F)(F)F)nc3)c3cncn3C)cc2c(C#N)c1CN1CCC(C(F)(F)F)CC1 (single isomer, unassigned) [Example 191b, 6-(Hydroxy(1-methyl-1H-imidazol-5-yl)(6-(trifluoromethyl)pyridin-3-yl)methyl)-2-methoxy-3-((4-(trifluoromethyl)piperidin-1-yl)methyl)quinoline-4-carbonitrile] | – | – | – | 98 nM | – |
| COc1nc2ccc(C(O)(c3ccc(C(F)(F)F)nc3)c3cncn3C)cc2c(C#N)c1CN1CCC(C(F)(F)F)CC1 (single isomer, unassigned) [Example 191c, 6-(Hydroxy(1-methyl-1H-imidazol-5-yl)(6-(trifluoromethyl)pyridin-3-yl)methyl)-2-methoxy-3-((4-(trifluoromethyl)piperidin-1-yl)methyl)quinoline-4-carbonitrile] | – | – | – | 3.1 nM | – |
| Cc1ccc(C(O)(c2ccc3nc(Cl)c(CC(F)(F)F)c(N4CCC4)c3c2)c2cnnn2C)c(C)n1 (single isomer, unassigned) [Example 238b, [4-(Azetidin-1-yl)-2-chloro-3-(2,2,2-trifluoroethyl)-6-quinolyl]-(2,6-dimethyl-3-pyridyl)-(3-methyltriazol-4-yl)methanol] | – | > 6000 nM | – | 13000 nM | RORγt (LBD) Reporter Assay, % inhibition [2]: 9% |
| COc1nc2ccc(C(O)(c3ccccc3)C3CCN(C(C)=O)CC3)cc2c(Cl)c1CC1CCOCC1 (stereo not drawn) [Example 4a, 1-(4-((4-Chloro-2-methoxy-3-((tetrahydro-2H-pyran-4-yl)methyl)quinolin-6-yl)(hydroxy)(phenyl)methyl)piperidin-1-yl)ethanone] | 16 nM | > 6000 nM | 24% | – | – |
| COc1nc2ccc([C@](O)(c3ccccc3)C3CCN(C(C)=O)CC3)cc2c(Cl)c1CC1CCOCC1 [Example 4c] | 53 nM | > 6000 nM | – | – | RORγt (LBD) Reporter Assay, % inhibition @ 6 μM [2]: −6% |
| COc1nc2ccc(C(O)(c3cncn3C)C3CCN(S(C)(=O)=O)CC3)cc2c(Cl)c1CC1CCOCC1 (stereo not drawn) [Example 6a, (4-Chloro-2-methoxy-3-((tetrahydro-2H-pyran-4-yl)methyl)quinolin-6-yl)(1-methyl-1H-imidazol-5-yl)(1-(methylsulfonyl)piperidin-4-yl)methanol] | 220 nM | > 6000 nM | 26% | – | – |
| CC(=O)N1CCC(C(O)(c2ccc3nc(C(F)(F)F)c(C(=O)N4CCCCC4)c(C(F)(F)F)c3c2)c2cncn2C)CC1 (stereo not drawn) [Example 9, 1-(4-(Hydroxy(1-methyl-1H-imidazol-5-yl)(3-(piperidine-1-carbonyl)-2,4-bis(trifluoromethyl)quinolin-6-yl)methyl)piperidin-1-yl)ethanone] | 8200 nM | > 6000 nM | 16% | – | – |
| COc1nc2ccc(C(O)(c3cnc(C)n3C)c3cnc(C)n3C)cc2c(Cl)c1OCC1CCCN1C (stereo not drawn) [Example 52, {4-Chloro-2-methoxy-3-[(1-methylpyrrolidin-2-yl)methoxy]quinolin-6-yl}[bis(1,2-dimethyl-1H-imidazol-5-yl)]methanol] | 2900 nM | – | – | – | – |
| COc1nc2ccc(C(O)(c3ccc(C)nc3C)c3cnnn3C)cc2c(Cl)c1C(=O)N1CCC(C(F)(F)F)CC1 (stereo not drawn) [Example 83, (4-Chloro-2-methoxy-3-{[4-(trifluoromethyl)piperidin-1-yl]carbonyl}quinolin-6-yl)(2,6-dimethylpyridin-3-yl)(1-methyl-1H-1,2,3-triazol-5-yl)methanol] | 360 nM | – | – | – | – |
| COc1nc2ccc(C(O)(c3ccc(C)nc3C)c3cnnn3C)cc2c(Cl)c1C(=O)NCC1CC1 (stereo not drawn) [Example 147, 4-Chloro-N-(cyclopropylmethyl)-6-[(2,6-dimethylpyridin-3-yl)(hydroxy)(1-methyl-1H-1,2,3-triazol-5-yl)methyl]-2-methoxyquinoline-3-carboxamide] | – | – | – | 930 nM | – |
| COc1nc2ccc(C(O)(c3ccc(C)nc3C)c3cnnn3C)cc2c(Cl)c1C(=O)N(C)C (stereo not drawn) [Example 148, 4-Chloro-6-[(2,6-dimethylpyridin-3-yl)(hydroxy)(1-methyl-1H-1,2,3-triazol-5-yl)methyl]-2-methoxy-N,N-dimethylquinoline-3-carboxamide] | – | – | – | 1700 nM | – |
| COc1nc2ccc(C(O)(c3ccc(C)nc3C)c3cnnn3C)cc2c(Cl)c1C(=O)N1CCCC1 (stereo not drawn) [Example 151, [4-Chloro-2-methoxy-3-(pyrrolidin-1-ylcarbonyl)quinolin-6-yl](2,6-dimethylpyridin-3-yl)(1-methyl-1H-1,2,3-triazol-5-yl)methanol] | – | – | – | 5100 nM | – |
| COc1nc2ccc(C(O)(c3ccc(C)nc3C)c3cnnn3C)cc2c(Cl)c1C(=O)NCC(F)(F)F (stereo not drawn) [Example 152, 4-Chloro-6-[(2,6-dimethylpyridin-3-yl)(hydroxy)(1-methyl-1H-1,2,3-triazol-5-yl)methyl]-2-methoxy-N-(2,2,2-trifluoroethyl)quinoline-3-carboxamide] | – | – | – | 600 nM | – |
| COc1nc2ccc(C(O)(c3ccc(C)nc3C)c3cnnn3C)cc2c(Cl)c1C(=O)N1CC(F)(F)C1 (stereo not drawn) [Example 153, {4-Chloro-3-[(3,3-difluoroazetidin-1-yl)carbonyl]-2-methoxyquinolin-6-yl}(2,6-dimethylpyridin-3-yl)(1-methyl-1H-1,2,3-triazol-5-yl)methanol] | – | – | – | 3000 nM | – |
| COc1nc2ccc(C(O)(c3cnc(C)n3C)c3cnc(C)n3C)cc2c(Cl)c1CNC(=O)CC(F)(F)F [Example 185, N-((6-(Bis(1,2-dimethyl-1H-imidazol-5-yl)(hydroxy)methyl)-4-chloro-2-methoxyquinolin-3-yl)methyl)-3,3,3-trifluoropropanamide] | – | – | – | 770 nM | – |
| COc1nc2ccc(C(O)(c3cnc(C)n3C)c3cnc(C)n3C)cc2c(Cl)c1CNC(=O)CCC(F)(F)F [Example 186, N-((6-(Bis(1,2-dimethyl-1H-imidazol-5-yl)(hydroxy)methyl)-4-chloro-2-methoxyquinolin-3-yl)methyl)-4,4,4-trifluorobutanamide] | – | – | – | 590 nM | – |
